In PubChem BioAssay AID1259407 (Chemical Carcinogenesis Research Information System (CCRIS), 2018):
The source made the active and inactive calls. How the calls were made is not given here.

Test system: CCRIS mutagenicity, Ames/micronucleus/aberration tests
Test: CCRIS mutagenicity studies
Conditions: Method: STANDARD PLATE

Measured: mutagenic call

CC(=O)c1ccc(S(=O)(=O)NC(=O)NC2CCCCC2)cc1
inactive: Test System: AMES SALMONELLA TYPHIMURIUM, Strain/Indicator: TA98, Metabolic Activation: HAMSTER, LIVER, S-9, AROCLOR 1254 inactive; negative | Test System: AMES SALMONELLA TYPHIMURIUM, Strain/Indicator: TA98, Metabolic Activation: HAMSTER, LIVER, S-9 inactive; negative | Test System: AMES SALMONELLA TYPHIMURIUM, Strain/Indicator: TA98, Metabolic Activation: MOUSE, LIVER, S-9, AROCLOR 1254 inactive; negative | Test System: AMES SALMONELLA TYPHIMURIUM, Strain/Indicator: TA98, Metabolic Activation: MOUSE, LIVER, S-9 inactive; negative | Test System: AMES SALMONELLA TYPHIMURIUM, Strain/Indicator: TA98, Metabolic Activation: NONE inactive; negative | Test System: AMES SALMONELLA TYPHIMURIUM, Strain/Indicator: TA98, Metabolic Activation: RAT, LIVER, S-9, AROCLOR 1254 inactive; negative | Test System: AMES SALMONELLA TYPHIMURIUM, Strain/Indicator: TA98, Metabolic Activation: RAT, LIVER, S-9 inactive; negative | Test System: AMES SALMONELLA TYPHIMURIUM, Strain/Indicator: TA100, Metabolic Activation: HAMSTER, LIVER, S-9, AROCLOR 1254 inactive; negative | Test System: AMES SALMONELLA TYPHIMURIUM, Strain/Indicator: TA100, Metabolic Activation: HAMSTER, LIVER, S-9 inactive; negative | Test System: AMES SALMONELLA TYPHIMURIUM, Strain/Indicator: TA100, Metabolic Activation: MOUSE, LIVER, S-9, AROCLOR 1254 inactive; negative | Test System: AMES SALMONELLA TYPHIMURIUM, Strain/Indicator: TA100, Metabolic Activation: MOUSE, LIVER, S-9 inactive; negative | Test System: AMES SALMONELLA TYPHIMURIUM, Strain/Indicator: TA100, Metabolic Activation: NONE inactive; negative | Test System: AMES SALMONELLA TYPHIMURIUM, Strain/Indicator: TA100, Metabolic Activation: RAT, LIVER, S-9, AROCLOR 1254 inactive; negative | Test System: AMES SALMONELLA TYPHIMURIUM, Strain/Indicator: TA100, Metabolic Activation: RAT, LIVER, S-9 inactive; negative | Test System: AMES SALMONELLA TYPHIMURIUM, Strain/Indicator: TA1535, Metabolic Activation: HAMSTER, LIVER, S-9, AROCLOR 1254 inactive; negative | Test System: AMES SALMONELLA TYPHIMURIUM, Strain/Indicator: TA1535, Metabolic Activation: HAMSTER, LIVER, S-9 inactive; negative | Test System: AMES SALMONELLA TYPHIMURIUM, Strain/Indicator: TA1535, Metabolic Activation: MOUSE, LIVER, S-9, AROCLOR 1254 inactive; negative | Test System: AMES SALMONELLA TYPHIMURIUM, Strain/Indicator: TA1535, Metabolic Activation: MOUSE, LIVER, S-9 inactive; negative | Test System: AMES SALMONELLA TYPHIMURIUM, Strain/Indicator: TA1535, Metabolic Activation: NONE inactive; negative | Test System: AMES SALMONELLA TYPHIMURIUM, Strain/Indicator: TA1535, Metabolic Activation: RAT, LIVER, S-9, AROCLOR 1254 inactive; negative | Test System: AMES SALMONELLA TYPHIMURIUM, Strain/Indicator: TA1535, Metabolic Activation: RAT, LIVER, S-9 inactive; negative | Test System: AMES SALMONELLA TYPHIMURIUM, Strain/Indicator: TA1537, Metabolic Activation: HAMSTER, LIVER, S-9, AROCLOR 1254 inactive; negative | Test System: AMES SALMONELLA TYPHIMURIUM, Strain/Indicator: TA1537, Metabolic Activation: HAMSTER, LIVER, S-9 inactive; negative | Test System: AMES SALMONELLA TYPHIMURIUM, Strain/Indicator: TA1537, Metabolic Activation: MOUSE, LIVER, S-9, AROCLOR 1254 inactive; negative | Test System: AMES SALMONELLA TYPHIMURIUM, Strain/Indicator: TA1537, Metabolic Activation: MOUSE, LIVER, S-9 inactive; negative | Test System: AMES SALMONELLA TYPHIMURIUM, Strain/Indicator: TA1537, Metabolic Activation: NONE inactive; negative | Test System: AMES SALMONELLA TYPHIMURIUM, Strain/Indicator: TA1537, Metabolic Activation: RAT, LIVER, S-9, AROCLOR 1254 inactive; negative | Test System: AMES SALMONELLA TYPHIMURIUM, Strain/Indicator: TA1537, Metabolic Activation: RAT, LIVER, S-9 inactive; negative | Test System: AMES SALMONELLA TYPHIMURIUM, Strain/Indicator: TA1538, Metabolic Activation: HAMSTER, LIVER, S-9, AROCLOR 1254 inactive; negative | Test System: AMES SALMONELLA TYPHIMURIUM, Strain/Indicator: TA1538, Metabolic Activation: HAMSTER, LIVER, S-9 inactive; negative | Test System: AMES SALMONELLA TYPHIMURIUM, Strain/Indicator: TA1538, Metabolic Activation: MOUSE, LIVER, S-9, AROCLOR 1254 inactive; negative | Test System: AMES SALMONELLA TYPHIMURIUM, Strain/Indicator: TA1538, Metabolic Activation: MOUSE, LIVER, S-9 inactive; negative | Test System: AMES SALMONELLA TYPHIMURIUM, Strain/Indicator: TA1538, Metabolic Activation: NONE inactive; negative | Test System: AMES SALMONELLA TYPHIMURIUM, Strain/Indicator: TA1538, Metabolic Activation: RAT, LIVER, S-9, AROCLOR 1254 inactive; negative | Test System: AMES SALMONELLA TYPHIMURIUM, Strain/Indicator: TA1538, Metabolic Activation: RAT, LIVER, S-9 inactive; negative | Test System: E. COLI, Strain/Indicator: WP2 UVRA, Metabolic Activation: HAMSTER, LIVER, S-9, AROCLOR 1254 inactive; negative | Test System: E. COLI, Strain/Indicator: WP2 UVRA, Metabolic Activation: HAMSTER, LIVER, S-9 inactive; negative | Test System: E. COLI, Strain/Indicator: WP2 UVRA, Metabolic Activation: MOUSE, LIVER, S-9, AROCLOR 1254 inactive; negative | Test System: E. COLI, Strain/Indicator: WP2 UVRA, Metabolic Activation: MOUSE, LIVER, S-9 inactive; negative | Test System: E. COLI, Strain/Indicator: WP2 UVRA, Metabolic Activation: NONE inactive; negative | Test System: E. COLI, Strain/Indicator: WP2 UVRA, Metabolic Activation: RAT, LIVER, S-9, AROCLOR 1254 inactive; negative | Test System: E. COLI, Strain/Indicator: WP2 UVRA, Metabolic Activation: RAT, LIVER, S-9 inactive; negative
